{"source": "patent US7297702B2", "about": "“Contraception method using competitive progesterone antagonists and novel compounds useful therein” (Schering Aktiengesellschaft, priority 2004, dated 2007)", "key": {"rat [1]": {"test_system": "rat", "test": "Implantation inhibition (antinidatory effectiveness) in the rat", "type": "in vivo"}, "[2]": {"test": "Thymolysis test for antiglucocorticoidal effect", "type": "in vivo", "settings": "thymolysis test (EP-A-0 283 428)", "text": "This is seen from the thymolysis test for antiglucocorticoidal effect (EP-A-0 283 428)."}, "rat [3]": {"test_system": "rat", "test": "Dissociation factor: ovulation inhibition test versus implantation inhibition in the rat", "type": "in vivo", "settings": "for peripherally selective effectiveness (endometrium versus hypophysial-ovarian axis): endometrial effect very greatly pronounced, at the same dose at most only a slight central effect; for Dissociation factor: ratio of ovulation-inhibiting dose and implantation inhibiting dose, rat, peroral administration", "text": "Such competitive progesterone antagonists can also be designated as dissociated, since at a specific threshold dose, although changes of the endometrium are observed, ovulation (central effect) is not inhibited. The ratio of ovulation-inhibiting dose and implantation inhibiting dose (dissociation factor) (as determined in the rat after peroral administration) can be used as a measurement of the dissociation. This ratio varies from species to species but is at least about 30 or higher in a dissociated or competitive progesterone antagonist.\nSuch competitive progesterone antagonists can also be designated as dissociated, since at a specific threshold dose, changes of the endometrium are observed, but the ovulation (central effect) is not inhibited. The ratio of ovulation-inhibiting and implantation inhibiting (dissociation factor) doses can be used as a measurement for the dissociation. It varies depending on the species and is about. 30 or more for a dissociated competitive progesterone antagonist (in the rat after peroral administration) to be used according to the invention.\nTo determine the ovulation-inhibiting doses of competitive progesterone antagonists, the ovulation-inhibiting test described below is performed on the rat; the respective abortively effective doses follow from the known (e.g., U.S. Pat. No. 5,095,129) rat abortive test.\nOvulation Inhibition Test on the Rat\nFor detection of ovulation-inhibiting substances, the rat is well-suited insofar as it spontaneously ovulates and the cycle can easily be observed by means of vaginal smears. This makes it possible to control the course of the test also during the treatment phase.\nFemale rats weighing 190-210 g, pro dosi 6 animals.\nThe animals are kept in Macrolon cages in rooms with controlled exposure to light (10 hours of darkness: 14 hours of brightness), fed a standard diet (pelletized rat food) and tap water at will.\nThe test substances are dissolved in benzyl benzoate/castor oil (1+9 v/v) and the daily dose is administered in a volume of 0.2 ml s.c.\nIn the oral application, the test substance is suspended in a carrier liquid (85 mg of Myrj® in 100 ml of 0.9% w/v NaCl solution) and the daily dose is administered in a volume of 0.5 ml.\nTwo cycles are observed before the beginning of the test by means of vaginal smears. Only animals with a regular 4-day cycle are used in the test. The assignment to the treatment groups takes place at random. Beginning in the metestrus, the test substance is administered over 4 days (day 1-4) and the cycle is further controlled.\nOn day 4 (after the administration), animals, which have an estrus or metestrus at the time of the vaginal smear, are ovariectomized on one side under ether anesthesia. Crush preparations are prepared from the tubes and examined by microscope for the presence of egg cells. On day 5, all animals (intact and unilaterally ovariectomized) are killed with CO2 gas and the tubes are prepared and examined in the same way.\nIn the individual dosage groups, the percentage of animals in which the ovulation was inhibited is determined."}, "women": {"test_system": "women", "test": "Human Study 3: once-a-week oral onapristone", "type": "in vivo", "settings": "once-a-week oral 0.25-50 mg over two cycles", "description": "Duration of the study: Evaluation of three cycles: pre-treatment, treatment and post-treatment cycles. • Regimen: 18 daily oral administration of 20 mg (group 1), 10 mg (group 2) and 5 mg (group 3) onapristone starting on day 1 of the cycle. c) Evaluation: • RIA, LH, FSH, E2 and progesterone and cortisol during the pre-treatment, treatment and post-treatment cycles. • Evaluation of endometrial biopsies and collection of the uterine fluid (by prevical) on day 16 and day 23 of the treatment cycle (see appendix for details) • Occurrence of menstrual bleeding. Human Study 3: Effects of once-a-week administration of onapristone on ovulation, endometrial morphology and biochemistry a) Objective:\nGroups of volunteers: […] (five treatment groups and a control group) of 8-10 women with ligated oviducts.\nDuration of the study: Evaluation of four cycles: pre-treatment, two treatment and post-treatment cycles.\nOnce-a-week oral administration of 50 mg (group 1) 20 mg (group 2), 10 mg (group 3) 2 mg ([…]) and 0.25 mg (group 5), onapristone starting on day 1 of the cycle over the two cycles.\nRIA, LH, FSH, E2 and progesterone during the pre-treatment, treatment and post-treatment cycles.\nEvaluation of endometrial biopsies and collection of the uterine fluid on day 16 and day 23 of both treatment cycles (see appendix for details).\nOccurrence of menstrual bleeding and cycle abnormalities: […]"}, "humans": {"test_system": "humans", "settings": "50 mg, given during the late luteal phase; cited from earlier work"}, "endometrium": {"test_system": "endometrium", "test": "Weekly s.c. Onapriston in bonnet monkeys: endometrial histology (biopsy day 20 of second cycle)", "type": "in vivo, Macaca radiata", "settings": "both treatment groups (5 mg and 10 mg weekly s.c.), after 7 administrations", "text": "(§1) The above-described use of competitive progesterone antagonists is evidenced by tests performed with Onapriston [11β-(4-dimethylaminophenyl)-17α-hydroxy-17β-(3-hydroxy-propyl)-13α-methyl-4,9-gonadien-3-one; EP-A-0129499], a typically competitive progesterone antagonist, on adult, female bonnet monkeys (Macaca radiata)."}, "[4]": {"test_system": "adult, female bonnet monkeys (Macaca radiata)", "test": "Weekly s.c. Onapriston in bonnet monkeys: length of menstrual cycle and menstrual period", "type": "in vivo", "settings": "for Length of MC, After-treatment Cycle / Length of MC, Treatment Cycle 1 / Length of MC, Treatment Cycle 2 / Length of MD, After-treatment Cycle / Length of MP, Treatment Cycle 1 / Length of MP, Treatment Cycle 2 / Length of MC, Pretreatment Cycle / Length of MP, Pretreatment Cycle: individual animals; for Length of MC, Pretreatment Cycle / Length of MP, Pretreatment Cycle: pretreatment cycle (baseline)", "text": "as §1"}, "[5]": {"test_system": "adult, female bonnet monkeys (Macaca radiata)", "test": "Weekly s.c. Onapriston in bonnet monkeys: estradiol and progesterone levels (RIA), folliculogenesis and ovulation", "type": "in vivo", "settings": "5 mg and 10 mg per animal s.c. weekly, 2 cycles", "text": "as §1"}}, "note": "Where “and” joins values, the source holds several entries; their conditions need not be identical. Equal values may be shown once."}
{"compound": "11β,19-[4-(3-pyridinyl)-o-phenylene]-17β-hydroxy-17α-(3-hydroxyprop-1(Z)-enyl)-4-androsten-3-one [II]", "values": [{"measurement": "daily dose still completely implantation-inhibiting effective", "setting": "rat [1]", "value": 0.3, "unit": "mg"}, {"measurement": "antiglucocorticoidal effect", "setting": "[2]", "value": "not simultaneously antiglucocorticoidally effective"}, {"measurement": "peripherally selective effectiveness (endometrium versus hypophysial-ovarian axis)", "setting": "rat [3]", "value": "surprisingly pronounced peripherally selective effectiveness"}, {"measurement": "Dissociation factor", "setting": "rat [3]", "value": ">30"}]}
{"compound": "11β,19-[4-(4-cyanophenyl)-o-phenylene]-17β-hydroxy-17α-(3-hydroxyprop-1(Z)-enyl)-4-androsten-3-one [I]", "values": [{"measurement": "daily dose still completely implantation-inhibiting effective", "setting": "rat [1]", "value": 0.1, "unit": "mg"}, {"measurement": "antiglucocorticoidal effect", "setting": "[2]", "value": "not simultaneously antiglucocorticoidally effective"}, {"measurement": "peripherally selective effectiveness (endometrium versus hypophysial-ovarian axis)", "setting": "rat [3]", "value": "surprisingly pronounced peripherally selective effectiveness"}, {"measurement": "Dissociation factor", "setting": "rat [3]", "value": ">100"}]}
{"compound": "CN(C)c1ccc([C@H]2C[C@]3(C)[C@@H](CC[C@]3(O)CCCO)[C@@H]3CCC4=CC(=O)CCC4=C32)cc1", "note": "[Onapriston, 11β-(4-dimethylaminophenyl)-17α-hydroxy-17β-(3-hydroxy-propyl)-13α-methyl-4,9-gonadien-3-one]", "values": [{"measurement": "contraception reliability", "setting": "women", "value": "high contraception reliability"}, {"measurement": "control of the cycle compared to the control group", "setting": "women", "value": "better control of the cycle"}, {"measurement": "tolerance", "setting": "women", "value": "high tolerance"}, {"measurement": "effect on menstruation", "setting": "humans", "value": "induce premature menstruation"}, {"measurement": "endometrial histology in contrast to control animals", "setting": "endometrium", "value": "atrophied"}, {"measurement": "length of the cycle and the menstrual period relative to the control group", "setting": "[4]; 5 mg and 10 mg per animal s.c. weekly, 2 cycles", "value": "not changed"}, {"measurement": "Length of MC, After-treatment Cycle", "setting": "[4]; Group 2, 5 mg/week s.c.", "value": "27 day (2×) and 31 day"}, {"measurement": "Length of MC, Treatment Cycle 1", "setting": "[4]; Group 2, 5 mg/week s.c.", "value": "24 days and 27 days and 26 days"}, {"measurement": "Length of MC, Treatment Cycle 2", "setting": "[4]; Group 2, 5 mg/week s.c.", "value": "39 days and 29 days and 26 days"}, {"measurement": "Length of MD, After-treatment Cycle", "setting": "[4]; Group 2, 5 mg/week s.c.", "value": "4 day (2×) and 3 day"}, {"measurement": "Length of MP, Treatment Cycle 1", "setting": "[4]; Group 2, 5 mg/week s.c.", "value": "2 day and 1 day (2×)"}, {"measurement": "Length of MP, Treatment Cycle 2", "setting": "[4]; Group 2, 5 mg/week s.c.", "value": "5 day and 1 day (2×)"}, {"measurement": "Length of MC, Pretreatment Cycle", "setting": "[4]; Group 2, 5 mg/week s.c.", "value": "26 days and 28 days and 24 days"}, {"measurement": "Length of MP, Pretreatment Cycle", "setting": "[4]; Group 2, 5 mg/week s.c.", "value": "1 day (2×) and 3 day"}, {"measurement": "Length of MC, After-treatment Cycle", "setting": "[4]; Group 3, 10 mg/week s.c.", "value": "26 days and 48 days and 27 days"}, {"measurement": "Length of MC, Treatment Cycle 1", "setting": "[4]; Group 3, 10 mg/week s.c.", "value": "25 days and 26 days and 28 days"}, {"measurement": "Length of MD, After-treatment Cycle", "setting": "[4]; Group 3, 10 mg/week s.c.", "value": "4 days and 1 days and 3 days"}, {"measurement": "Length of MP, Treatment Cycle 1", "setting": "[4]; Group 3, 10 mg/week s.c.", "value": "3 day and 1 day (2×)"}, {"measurement": "Length of MP, Treatment Cycle 2", "setting": "[4]; Group 3, 10 mg/week s.c.", "value": "1 day (2×) and 2 day"}, {"measurement": "Length of MC, Treatment Cycle 2", "setting": "[4]; Group 3, 10 mg/week s.c., * = 2 ovulation cycles, bleeding slight after the first cycle", "value": "53* day and 25 day and 28 day"}, {"measurement": "Length of MC, Pretreatment Cycle", "setting": "[4]; Group 3, 10 mg/week s.c.", "value": "26 days and 24 days and 30 days"}, {"measurement": "Length of MP, Pretreatment Cycle", "setting": "[4]; Group 3, 10 mg/week s.c.", "value": "4 days and 2 days and 3 days"}, {"measurement": "folliculogenesis and ovulation (estradiol and progesterone levels)", "setting": "[5]", "value": "occurred normally in all animals"}]}
{"compound": "CC#C[C@]1(O)CC[C@H]2[C@@H]3CCC4=CC(=O)CCC4=C3[C@@H](c3ccc(N(C)C)cc3)C[C@@]21C", "note": "[RU 486, 11β-[4-N,N-(dimethylamino)phenyl]-17β-hydroxy-17α-propinyl-estra-4,9(10)-dien-3-one]", "values": [{"measurement": "Dissociation factor", "setting": "rat [3]", "value": "<10"}]}
